≈ marks a conversion by molar mass, not a printed value. Like-named read-outs stand apart in the source and are kept apart here.
What was measured:
[1] = system: passive cutaneous anaphylaxis (PCA) in rats; assay: Inhibitory effect on passive cutaneous anaphylaxis (PCA) in rats; assay type: in vivo; conditions: dose 6.4 mg/kg p.o., 60 minutes before antigen challenge, exuded Evans Blue vs control group
Experimental: According to Mota's method [I. Mota, Immunology, 7, 681 - 699 (1964)], antiserum (256 times the PCA titer) of rat against egg albumin was prepared and diluted four times with physiological saline. Male SD rats (5 weeks old) were used as the test animals in groups, each containing 4 animals. The rats were sensitized by intradermal injection of 0.05 ml of the diluted antiserum solution in the dorsal position. 48 hours after this injection, a suspension of the test compound in an aqueous 0.5% w/v tragacanth solution was orally administered to the rats, which had been fasted for one day, and 60 minutes later they were injected in the caudal vein with 5 ml/kg body weight of physiological saline containing 0.4% w/v egg albumin and 1.0% w/v Evans Blue. 30 minutes after this last injection, the rats were sacrificed with carbon dioxide and the Evans Blue exuded in the dorsal intradermal portion was determined according to Harada's method (Harada et al., J. Pharm. Pharmac., 23, 218 - 219 (1971)].
The results achieved from the test groups which were treated with a test compound were evaluated to determine the inhibitory rate by comparison with the average amount of exuded dye in a control group, which was not given the test compound.
The inhibitory rate was calculated by the following equation. Inhibitory rate (%) = (1-B/A) x 100 [formula] A: amount of exuded dye in the control group B: amount of exuded dye in the test group.

[2] = system: intracutaneous reaction in rats by PAF; assay: Inhibitory effect on intracutaneous reaction in rats by PAF; assay type: in vivo; conditions: dose 6.4 mg/kg p.o., 60 minutes before intradermal PAF, leaked Evans blue vs control group
Experimental: Male SD rats (5 weeks old) were used as the test animals in groups, each containing 4 animals. Each rat was administered orally with a suspension of the test compound in a 0.5% w/v aqueous tragacanth solution. Sixty minutes after the administration, aqueous physiological saline containing 1.0% w/v Evans blue was injected into the tail vein in an amount of 5 ml/kg of the body weight. Immediately after the injection, 0.05 ml of a solution containing 2 µg/ml of PAF was intradermally injected into the back of the rat to induce a cutanous reaction. After 30 minutes, the rats were sacrificed using carbon dioxide, and the quantity of Evans blue which had leaked into the skin of the back was determined by the method of Harada et al. [J. Pharm. Pharmac., 23, 218 - 219 (1971)]. The inhibition rate of the compound was calculated by comparing the average amount of colourant which had leaked in the group treated with the test compound with that of control group to which no test compound was administered.
The inhibition rate was calculated according to the following equation: Inhibition rate (%) = (1 - B/A) x 100 [formula] where: A: Amount of colourant leaked in the control group B: Amount of colourant leaked in the group to which the test compound was administered.

[3] = system: PAF-induced blood platelet aggregation; assay: Inhibitory effect in vitro against PAF-induced blood platelet aggregation; assay type: cell-based; conditions: Oryctolagus cuniculus; rabbit platelet rich plasma, stimulated with ℓ-C16:0 PAF (10⁻⁸ ∼ 3 x 10⁻⁸ M), 37°C; read-out: Platelet aggregation inhibition, IC₅₀
Experimental: Blood samples were obtained by cardiac puncture from a rabbit and one part by volume of each sample was immediately mixed with 0.1 part of a 3.8% w/v aqueous solution of sodium citrate. A platelet rich plasma (PRP) fraction was prepared by centrifuging the samples at 150 x G for 15 minutes at room temperature, and a platelet poor plasma (PPP) fraction was then prepared by further centrifugation at 1,000 x G for 15 minutes. The platelet count in the PRP was adjusted to 6 x 10⁵ per µℓ by the addition of an appropriate amount of the PPP fraction. According to the method reported by Born et al. [G.V.R. Born et al.: J. Physiol. 62, 67 - 68 (1962)], blood platelet aggregation was determined turbidimetrically in a 6-channel aggregometer (Hemetracer, NKB, Tokyo, Japan). Aliquots of the PRP (272 µℓ) were preincubated with 3 µℓ of a solution of the test compound in dimethyl sulphoxide for 1 minute, and then stimulated with ℓ-C16:0 PAF (at a final concentration of 10⁻⁸ ∼ 3 x 10⁻⁸ M) at 37°C with stirring (100 rpm). Changes in light transmission were monitored for 5 minutes. Vehicle (dimethyl sulphoxide) controls were tested simultaneously, and the inhibitory effects of the test compounds were assessed on the maximal aggregation. The IC₅₀ values were calculated by the method of least squares.

PAF-receptor = target: T1, PAF-receptor (Oryctolagus cuniculus, UniProt G1TEI7); assay: Inhibitory effect on PAF-receptor binding; set-up: species or system rabbit
T1 construct: a precipitated blood platelet sample was obtained; from tissue; host or cells: rabbit blood platelets, membrane fraction from the 0.25 M / 1.5 M sucrose interface
T1 sequence (G1TEI7 1-342): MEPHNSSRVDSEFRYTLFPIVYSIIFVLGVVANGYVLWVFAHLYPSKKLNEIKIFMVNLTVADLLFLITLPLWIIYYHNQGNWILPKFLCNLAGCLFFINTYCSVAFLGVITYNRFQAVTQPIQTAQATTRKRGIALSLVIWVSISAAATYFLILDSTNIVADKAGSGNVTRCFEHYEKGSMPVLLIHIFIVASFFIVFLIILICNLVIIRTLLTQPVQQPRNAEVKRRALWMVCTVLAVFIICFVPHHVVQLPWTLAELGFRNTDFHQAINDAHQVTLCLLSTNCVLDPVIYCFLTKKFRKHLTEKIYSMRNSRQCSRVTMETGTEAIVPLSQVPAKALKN
From the text: Blood samples were drawn from the heart of a rabbit. 1 part by volume of each sample was mixed immediately with 1/9 part of a 0.077 M solution of disodium ethylenediaminetetraacetate. After a similar procedure to that described in Experiment 2, a precipitated blood platelet sample was obtained. This blood platelet sample was washed, and, after repeated freesing and thawing to rupture the cells, it was placed on top of two layers consisting of 0.25 M and 1.5 M sucrose solutions. By centrifugation at 63,500 x G, for 2 hours at 4°C, the fraction obtained from the interface between the 0.25 M and 1.5 M sucrose solutions was collected and is regarded as a PAF-receptor membrane fraction. A receptor binding experiment was then conducted according to a method very similar to that reported by Hwang et al. [San-Bao Hwang et al.: J. Biol. Chem. 260, 15639 - 15645 (1985)]. The specific binding of ³H-PAF was measured using a Wattman GF/C filter. A test compound was dissolved in dimethyl sulphoxide and diluted 100 fold with a buffer solution containing 0.5% bovine serum albumin. Nine parts by volume of the solution, for a receptor binding experiment, was mixed with one part of the test compound solution prepared above. The percent inhibition of the specific binding was plotted against the log of the concentration of the test compound, and the 50% inhibitory concentration (IC₅₀) was calculated from the linear line connecting all the plotted points.

[4] = rabbit platelet PAF-receptor membrane fraction, specific binding of ³H-PAF, read-out: Receptor binding inhibition, IC₅₀ (g/ml) (converted)

Structure (SMILES) | Inhibitory rate (%) [1] | Inhibitory rate (%) [2] | IC50 [3] | IC50 (PAF-receptor; [4]) | IC50 (PAF-receptor)
CN(CCOC(c1ccccc1)c1ccccc1)CCN(C)C(=O)[C@@H]1CSC(c2cccnc2)N1 (stereo partly drawn) [Example 1, (4R)-N-Methyl-N-{2-[N-(2-diphenylmethoxyethyl)-N-methylamino]ethyl}-2-(3-pyridyl)thiazolidine-4-carboxamide] | 33% | 57% | 0.063 mg/L (≈ 0.128 µM) |  | 
O=C([C@@H]1CSC(c2cccnc2)N1)N1CCN(CCOC(c2ccccc2)c2ccc(Cl)cc2)CC1 (some centres unmarked) [Example 4] |  | 64% | 0.085 mg/L (≈ 0.162 µM) | 0.0516 µM | 
O=C([C@@H]1CSC(c2cccnc2)N1)N1CCN(CCN2CCC(=C(c3ccccc3)c3ccccc3)CC2)CC1 (stereo partly drawn) [Example 5, (4R)-1-{2-[4-(Diphenylmethylene)-1-piperidinyl]ethyl}-4-[2-(3-pyridyl)thiazolidin-4-ylcarbonyl]piperazine] | 42% |  |  |  | 
Cc1ccc(C(OCCN2CCN(C(=O)[C@@H]3CSC(c4cccnc4)N3)CC2)c2ccccc2)cc1 (some centres unmarked) [Example 6] | 45% |  | 0.055 mg/L (≈ 0.109 µM) | 0.0418 µM | 
O=C([C@@H]1CSC(c2cccnc2)N1)N1CCN(CCOC(c2ccccc2)c2ccccc2)CC1 (stereo partly drawn) [Example 7, (4R)-1-(2-Diphenylmethoxyethyl)-4-[2-(3-pyridyl)thiazolidin-4-ylcarbonyl]piperazine] |  | 70% | 0.095 mg/L (≈ 0.194 µM) |  | 0.0512 µM
O=C([C@@H]1CSC(c2cccnc2)N1)N1CCN(CCOC(c2ccccc2)C2CCCCC2)CC1 (stereo partly drawn) [Example 11, (4R)-1-[2-(α-Cyclohexylbenzyloxy)ethyl]-4-[2-(3-pyridyl)thiazolidin-4-ylcarbonyl]piperazine] |  |  | 0.072 mg/L (≈ 0.146 µM) | 0.445 µM | 
O=C([C@@H]1CSC(c2cccnc2)N1)N1CCCN(CCOC(c2ccc(F)cc2)c2ccc(F)cc2)CC1 (stereo partly drawn) [Example 12, (4R)-1-[2-Bis(4-fluorophenyl)methoxyethyl]-4-[2-(3-pyridyl)thiazolidin-4-ylcarbonyl]homopiperazine] |  |  | 0.19 mg/L (≈ 0.353 µM) |  | 0.39 µM
O=C([C@@H]1CSC(c2cccnc2)N1)N1CCCN(CCOC(c2ccccc2)c2ccccc2)CC1 (stereo partly drawn) [Example 13, (4R)-1-(2-Diphenylmethoxyethyl)-4-[2-(3-pyridyl)thiazolidin-4-ylcarbonyl]homopiperazine] |  |  | 0.22 mg/L (≈ 0.438 µM) |  | 0.279 µM
O=C([C@@H]1CSC(c2cccnc2)N1)N1CCN(CCOC(c2ccc(F)cc2)c2ccc(F)cc2)CC1 (stereo partly drawn) [Example 14, (4R)-1-[2-Bis(4-fluorophenyl)methoxyethyl]-4-[2-(3-pyridyl)thiazolidin-4-ylcarbonyl]piperazine] |  | 47% | 0.14 mg/L (≈ 0.267 µM) |  | 0.0191 µM
O=C(NCCN1CCN2c3ccccc3Cc3ccccc3[C@@H]2C1)[C@@H]1CSC(c2cccnc2)N1 (stereo partly drawn) [Example 16, (4R)-N-{2-[(14bR)-1,2,3,4,10,14b-Hexahydrodibenzo[c,f]pyrazino[1,2-a]azepin-2-yl]ethyl}-2-(3-pyridyl)thiazolidine-4-carboxamide] | 62% | 62% |  |  | 
O=C(NCCN1CCN2c3ccccc3Cc3ccccc3[C@H]2C1)[C@@H]1CSC(c2cccnc2)N1 (stereo partly drawn) [Example 17, (4R)-N-{2-[(14bS)-1,2,3,4,10,14b-Hexahydrodibenzo[c,f]pyrazino[1,2-a]azepin-2-yl]ethyl}-2-(3-pyridyl)thiazolidine-4-carboxamide] | 73% |  |  |  | 
O=C(NCCN1CCN2c3ccc(F)cc3Cc3ccccc3[C@H]2C1)[C@@H]1CSC(c2cccnc2)N1 (stereo partly drawn) [Example 25, (4R)-N-{2-[(14bS)-8-Fluoro-1,2,3,4,10,14b-hexahydrodibenzo[c,f]pyrazino[1,2-a]azepin-2-yl]ethyl}-2-(3-pyridyl)thiazolidine-4-carboxamide] | 55% |  |  |  | 
